The source of these data is patent publication US20070032477A1, “Pteridine derivatives useful for making pharmaceutical compositions” (priority 2003, published 2007).

A short description of test [1]: Mixed lymphocyte reaction (MLR) assay. Type of test: cell-based, human. To be noted: Homo sapiens, Lymphocyte; lowest concentration giving 50% suppression of the MLR; [3H]-thymidine.
Test [2] has as its system production of TNF-α by PBMC in response to stimulation by LPS. The test can be described thus: TNF-α assay. Format: cell-based, human. To be noted: LPS 1 μg/ml, 72 hours, sandwich ELISA. The essentials: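 Cells were LPS-stimulated (1 μg/ml final) peripheral blood mononuclear cells at 10^6/ml, exposed 72 h at 37 °C to 0.1, 1 or 10 μM test compound.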
(In general: ELISA stands for enzyme-linked immunosorbent assay.)

Test [3] relates to production of IL-1 β by PBMC in response to stimulation by LPS. The test can be described thus: IL-1 β assay. Format: cell-based, human. The conditions noted are these: LPS 1 μg/ml, 72 hours, sandwich ELISA. As for the experimental part: Peripheral blood mononuclear cells (herein referred as PBMC), in response to stimulation by lipopolysaccharide (LPS), a gram-negative bacterial endotoxin, produce various […], in particular human IL-1 β. Inhibition of the activation of PBMC can therefore be measured by the level of suppression of the production of IL-1 β by PBMC in response to stimulation by LPS.
Such inhibition measurement was performed as follows: PBMC were isolated from heparinized peripheral blood by density gradient centrifugation over Lymphoprep (commercially available from Nycomed, Norway). LPS was then added to the PMBC suspension in complete medium (10^6 cells/ml) at a final concentration of 1 μg/ml. The pteridine derivative to be tested was added at different concentrations (0.1 μM, 1 μM and 10 μM) and the cells were incubated at 37° C. for 72 hours in 5% CO2. The supernatants were collected, then IL-1 β concentrations were measured with an anti-IL-1 β antibody in a sandwich ELISA. The calorimetric reading of the ELISA was measured by a Multiskan RC plate reader (commercially available from ThermoLabsystems, Finland) at 450 nm (reference wavelength: 690 nm). Data analysis was performed with Ascent software 2.6. (also from ThermoLabsystems, Finland): a standard curve (recombinant human IL-1 β) was drawn and the amount (pg/ml) of each sample on the standard curve was determined.
The % suppression of human IL-1 β by the pteridine derivatives (drugs) of this invention was calculated using the formula: [formula]

Test [4] relates to mixed lymphocyte reaction (PBMC with allogeneic PBMC or Eppstein-Barr Virus-transformed human B cells as stimulator cells). The test can be described thus: Mixed lymphocyte reaction (MLR) assay. Format: cell-based. To be noted: lowest concentration giving 50% suppression of the MLR; [3H]-thymidine.

What is called IC50 is the concentration at which inhibition is half-maximal. Low readings indicate inhibition by little substance, high ones a need for much substance. As to `COc1ccc(-c2cnc3nc(N4CCCCC4)nc(N)c3n2)cc1OC` [Example 87, 4-amino-2-piperidino-6-(3,4-dimethoxyphenyl)pteridine], half-maximal inhibition in test [1] (IC50) was put at 8.4 µM.

Take `CCC(CC)N1CCN(c2nc(N)nc3ncc(-c4ccc(OC)c(OC)c4)nc23)CC1` [Example 166, 2-amino-6-(3,4-dimethoxyphenyl)-4-(pent-3-yl-piperazin-1-yl)pteridine]: the concentration for half-maximal inhibition (IC50) in test [2] is 0.8 µM; in test [3], 4.4 µM; in test [4], 5.3 µM.

On to `COc1ccc(-c2cnc3nc(N)nc(N4CCN(CCn5cccc5)CC4)c3n2)cc1OC` [Example 153], for which the IC50 was found to be 0.1 µM in test [2], 2 µM in test [3] and 0.2 µM in test [4].

On to `COc1ccc(-c2cnc3nc(N)nc(N4CCN(C(=O)C=Cc5ccccc5)CC4)c3n2)cc1OC` [Example 37, 2-amino-4-[(N-cinnamoyl)-piperazin-1-yl]-6-(3,4-dimethoxyphenyl)pteridine], for which the figures for the IC50 in test [2], in test [3] and in test [4] were 0.1 µM, 3.3 µM and < 0.001 µM, respectively.

`COc1ccc(-c2cnc3nc(N)nc(N4CCN(c5nccs5)CC4)c3n2)cc1OC` [Example 178]: the figures for the IC50 in test [2], in test [3] and in test [4] were 0.15 µM, 4 µM and 1.3 µM, respectively.

`CC(=O)N1CCN(c2nc(N)nc3ncc(-c4ccc(C)cc4)nc23)CC1` [Example 56, 2-amino-4-(N-acetylpiperazin-1-yl)-6-(4-tolyl)pteridine]: the IC50 in test [2] came out at 3.7 µM; in test [3], 8.7 µM; in test [4], 2.8 µM.

Consider `COc1ccc(-c2cnc3nc(N)nc(N4CCN(C(=O)Nc5ccsc5)CC4)c3n2)cc1OC` [Example 107, 2-amino-4-(N-3-thienylcarbamoyl-piperazin-1-yl)-6-(3,4-dimethoxyphenyl)pteridines], for which the IC50 in test [2] came out at 0.5 µM; in test [3], 0.8 µM; in test [4] it was 0.003 µM.

With `COc1ccc(-c2cnc3nc(N)nc(N4CCN(c5ccc(C)c(C)c5)CC4)c3n2)cc1OC` [Example 174, 2-amino-6-(3,4-dimethoxyphenyl)-4-((3,4-dimethylphenyl)-piperazin-1-yl)pteridine], the IC50 stood at 0.11 µM in test [2], 5 µM in test [3] and 0.5 µM in test [4].

On to `COc1ccc(-c2cnc3nc(N)nc(N4CCN(CCOc5ccccc5)CC4)c3n2)cc1OC` [Example 154], for which the half-maximal inhibitory concentration (IC50) in test [2] came out at 0.03 µM; in test [3], 2.2 µM; in test [4] it was 0.1 µM.

With `COc1ccc(-c2cnc3nc(N)nc(N4CCN(c5ccccc5)CC4)c3n2)cc1OC` [Example 64, 2-amino-4-(N-phenylpiperazin-1-yl)-6-(3,4-dimethoxyphenyl)pteridine], the values for the IC50 in test [2], in test [3] and in test [4] were 0.05 µM, 4.4 µM and 0.4 µM, respectively.

On to `COc1ccc(N2CCN(c3nc(N)nc4ncc(-c5ccc(OC)c(OC)c5)nc34)CC2)cc1` [Example 161, 2-amino-4-((4-methoxyphenyl)-piperazin-1-yl)-6-(3,4-dimethoxyphenyl)pteridine], for which the IC50 in test [2] is 0.06 µM; in test [3] it was 3.2 µM; in test [4] it was 0.4 µM.

Turning to “2-amino-4-((2-pyridyl)-piperazin-1-yl)-6-(3,4-dimethoxyphenyl)pteridine [Example 146]”, the IC50 in test [2] was determined as 0.2 µM; in test [3], 5 µM; in test [4], 0.2 µM.

As for `COc1ccc(-c2cnc3nc(N)nc(N4CCN(CCc5ccccc5)CC4)c3n2)cc1OC` [Example 159, 2-amino-4-(N-phenethylpiperazin-1-yl)-6-(3,4-dimethoxyphenyl)pteridine], the IC50 in test [2] worked out at 0.02 µM; in test [3], 5.4 µM; in test [4], 0.11 µM.

`COc1ccc(-c2cnc3nc(N)nc(N4CCN(C(=O)CCc5ccccc5)CC4)c3n2)cc1OC` [Example 15, 2-amino-4-[(N-hydrocinnamoyl)-piperazin-1-yl]-6-(3,4-dimethoxyphenyl)pteridine]: the results for the 50% inhibitory concentration (IC50) in test [2], in test [3] and in test [4] were 0.01 µM, 7 µM and 0.1 µM, respectively.

Regarding `COc1ccc(-c2cnc3nc(N)nc(N4CCN(C(=O)N(C(C)C)C(C)C)CC4)c3n2)cc1OC` [Example 20, 2-amino-4-[(N-diisopropylcarbamoyl)-piperazin-1-yl]-6-(3,4-dimethoxy-phenyl)pteridine], the concentration for half-maximal inhibition (IC50) in test [2] was determined as 0.03 µM; in test [3], 8.5 µM; in test [4], 0.5 µM.

For the compound `COc1ccc(-c2cnc3nc(N)nc(N4CCN(C(=O)NCCc5cccs5)CC4)c3n2)cc1OC` [Example 108, 2-amino-4-[N-2-(2-thienyl)ethylcarbamoyl-piperazin-1-yl]-6-(3,4-dimethoxyphenyl)pteridine], the half-inhibitory concentration (IC50) in test [2] came to 0.4 µM; in test [3], 1 µM; in test [4], 0.034 µM.

In the case of `COc1ccc(-c2cnc3nc(N)nc(N4CCN(C(=O)Oc5ccc6ccccc6c5)CC4)c3n2)cc1OC` [Example 98], the IC50 in test [2] was 0.08 µM; in test [3], 6.2 µM; in test [4], 0.12 µM.

As to `COc1ccc(-c2cnc3nc(N)nc(N4CCN(C(=O)Oc5ccccc5)CC4)c3n2)cc1OC` [Example 50, 2-amino-4-[(N-phenoxycarbonyl)-piperazin-1-yl]-6-(3,4-dimethoxy-phenyl)pteridine], the IC50 in test [2] is 0.02 µM; in test [3] it was 5.5 µM; in test [4] it was 0.065 µM.

In the case of `COc1ccc(-c2cnc3nc(N)nc(N4CCN(C(=S)N(C)C)CC4)c3n2)cc1OC` [Example 49, 2-amino-4-[(N-dimethylthiocarbamoyl)-piperazin-1-yl]-6-(3,4-dimethoxy-phenyl)pteridine], the IC50 amounted to 0.07 µM in test [2], 2.2 µM in test [3] and 0.4 µM in test [4].

Take `COc1ccc(-c2cnc3nc(N)nc(N4CCN(C(=O)OCC(C)C)CC4)c3n2)cc1OC` [Example 95, 2-amino-4-[N-isobutoxy-carbonyl-piperazin-1-yl]-6-(3,4-dimethoxyphenyl)pteridine]: the IC50 stood at 0.1 µM in test [2], 1 µM in test [3] and 0.12 µM in test [4].

Regarding `COc1ccc(-c2cnc3nc(N)nc(N4CCN(C(=O)c5ccc(Cl)cc5)CC4)c3n2)cc1OC` [Example 12], the IC50 was determined as 0.2 µM in test [2], 5 µM in test [3] and 0.3 µM in test [4].

Turning to `COc1ccc(-c2cnc3nc(N)nc(N4CCN(c5ccc(F)cc5)CC4)c3n2)cc1OC` [Example 172, 2-amino-6-(3,4-dimethoxyphenyl)-4-((4-fluorophenyl)-piperazin-1-yl)pteridine], the IC50 came out at 0.05 µM in test [2], 5.1 µM in test [3] and 0.1 µM in test [4].

In the case of `COc1ccc(-c2cnc3nc(N)nc(N4CCN(C(=O)Nc5ccc(C)cc5)CC4)c3n2)cc1OC` [Example 101, 2-amino-4-(N-4-methylphenyl-carbamoyl-piperazin-1-yl)-6-(3,4-dimethoxyphenyl)pteridine], the IC50 in test [2] turned out to be 0.43 µM; in test [3], 5.6 µM; in test [4] it was 0.0008 µM.

As to `COc1ccc(-c2cnc3nc(N)nc(N4CCN(CC(=O)Nc5nccs5)CC4)c3n2)cc1OC` [Example 187, 2-amino-4-[2-(piperazin-1-yl)-acetic acid N-(2-thiazolyl)-amide]-6-(3,4-dimethoxyphenyl)pteridine], the IC50 in test [2] worked out at 0.06 µM; in test [3], 2.4 µM; in test [4], 0.1 µM.

As for “2-amino-4-((1-phenylethyl)-piperazin-1-yl)-6-(3,4-dimethoxyphenyl)pteridine [Example 152]”, the concentration for half-maximal inhibition (IC50) in test [2] is 0.3 µM; in test [3], 3.6 µM; in test [4], 1.2 µM.

Consider `COc1ccc(-c2cnc3nc(N)nc(N4CCN(Cc5ccncc5)CC4)c3n2)cc1OC` [Example 157], for which the IC50 stood at 0.3 µM in test [2], 2.3 µM in test [3] and 0.5 µM in test [4].

Take `COc1ccc(-c2cnc3nc(N)nc(N4CCN(CCCc5ccccc5)CC4)c3n2)cc1OC` [Example 149]: the IC50 in test [2] was determined as 0.3 µM; in test [3], 4.9 µM; in test [4], 0.5 µM.

For the compound `COc1ccc(-c2cnc3nc(N)nc(N4CCN(C(=O)Nc5ccc(F)cc5)CC4)c3n2)cc1OC` [Example 100], the results for the IC50 in test [2], in test [3] and in test [4] were 0.51 µM, 7.4 µM and 0.0074 µM, respectively.

Turning to `COc1ccc(-c2cnc3nc(N)nc(N4CCN(C(=O)Cc5cccs5)CC4)c3n2)cc1OC` [Example 36, 2-amino-4-[(N-2-thiophenacetyl)-piperazin-1-yl]-6-(3,4-dimethoxy-phenyl)pteridine], the IC50 turned out to be 0.3 µM in test [2], 0.8 µM in test [3] and 0.8 µM in test [4].
